Common to all, as to assay: Cytotoxicity (SRB) assay with CalcuSyn combination analysis
Common to all, as to type: cell-based

In one experiment the test system is OVISE cells, LacZ Dox. Conditions: Homo sapiens, Table 3, single drug, read-out: Dm. The protocol:
(§1) Short Hairpin RNA (shRNA)-Mediated Knockdown and Expression of ARID1A in ovarian and endometrial carcinoma cells. shRNA lentiviral supernatants were produced using standard protocols, as previously described^8. Vectors were transfected into HEK293FT cells using X-tremeGENE 9 DNA Transfection Reagent (from Roche). Retroviral supernatants isolated at 48 h were diluted 1:1 in culture medium and used to infect ARID1A-wildtype ES2 and KLE cell lines. Stably transfected subclones were expanded using puromycin (from Dot Scientific) drug selection. For expression of ARID1A in the ARID1A-mutant HEC-1-A cell line, pCIN4-HA-ARID1A was transfected using X-tremeGENE 9 DNA Transfection Reagent (from Roche), followed by selection with G418 (from Gibco). For expression of ARID1A in the ARID1A-mutant SKOV3 and OVISE cell lines, V5/His-tagged pLenti-puro-LacZ and pLenti-puro-ARID1A were transfected using lentivirus. Lentivirus was produced using HEK293FT cells with the second-generation packaging system pSPAX2 (Addgene plasmid) and pMD2.G (Addgene plasmid). Stably transfected subclones were expanded using puromycin and blasticidin (Gibco) drug selection.
(§2) Cytotoxicity assay. Cells were seeded in 96-well plates, with 2000 cells in 100 μL/well, and cultured for 24 h. The cells were treated with serial dilutions of drugs or without drug for an additional 72 h. Cell number was determined using a sulforhodamine B (SRB) assay, as previously described^23. Briefly, cells were fixed with 20% trichloroacetic acid (TCA), air-dried, and stained with 0.4% SRB dissolved in 1% acetic acid. After washing, protein-bound dye was solubilized with 10 mM unbuffered Tris-base solution (pH 10.5) and detected at 510 nm using a microplate reader. Percentage of cell-growth was calculated using the following formula: % cell growth=[(Absorbance sample)/(Absorbance untreated)]×100
(§3) Using CalcuSyn software (Biosoft), dose-effect curves were generated, and drug concentrations corresponding to a 50% decrease in cell number (IC50) were determined.
(§4) CIwt<0.8, =0.8 to 1.2, and >1.2 indicates synergism, an additive effect, and antagonism, respectively. A CIwt value was assigned as follows: (ED50+2ED75+3ED90)/6. Datasets from at least three independent experiments were combined, and means±SD were calculated for each combination. Teri, teriflunomide. N/A, not applicable. Statistical analysis was carried out by one-way ANOVA with Bonferroni's post-hoc test, and differences were considered significant at ***P<0.001 as compared to the ARID1A restoration group induced by doxycycline with the same drug treatment.

A further experiment deals with OVISE cells, LacZ. Conditions: Homo sapiens, Table 3, single drug, read-out: Dm. The protocol:
as §1, §2, §3, §4

Experiment [1] relates to OVISE cells, ARID1A (not induced). To be noted: Homo sapiens, Table 3, single drug, read-out: Dm. The protocol: as §1, §2, §3, §4
The test system of experiment [2] is ARID1A-restoration OVISE cells (ARID1A Dox). Conditions: Homo sapiens, Table 3, single drug, read-out: Dm. The protocol:
as §1, §2, §3, §4

A further experiment deals with ES2 shARID1A (a) cells. To be noted: Homo sapiens, read-out: Dm. The method, then:
as §1, §2, §3
(§5) Drug concentrations corresponding to a median effect (Dm) are shown for each treatment; teriflunomide concentration is shown for combination (Combo) treatment at a 10:1 fixed molar ratio of two drugs, teriflunomide and AZD6738. […] Datasets from at least three independent experiments were combined, and each table cell contains the mean value±SD. SCR, ES2-shScrambled. N/A, not applicable. Statistical analysis was carried out by one-way ANOVA with Bonferroni's post-hoc test, and differences were considered significant at **P<0.01 and ***P<0.001 as compared to the ES2 parental group with the same drug treatment.
(§6) Drug concentrations (in μM for teriflunomide, in nM for […]) corresponding to median effect (Dm) are shown for each treatment; teriflunomide concentration is shown for combination (Combo) treatment at a 200:1 fixed molar ratio of the two drugs, teriflunomide and VX-970. […] CIwt<0.8, =0.8 to 1.2, and >1.2 indicates synergism, an additive effect, and antagonism, respectively. CIwt value was calculated using the formula: CIwt=(ED50+2ED75+3ED90)/6. Datasets from at least three independent experiments were combined, and each table cell contains the mean value±SD. Teri, teriflunomide. SCR, ES2-shScrambled. N/A, not applicable. Statistical analysis was carried out by one-way ANOVA with Bonferroni's post-hoc test, and differences were considered significant at ***P<0.001 as compared to the ES2 parental group with the same drug treatment.

Experiment [3] concerns ES2-shScrambled (SCR) cells. Conditions: Homo sapiens, read-out: Dm. The method, then:
as §1, §2, §3, §5, §6

For a further experiment, the system named is ES2 shARID1A (b) cells. To be noted: Homo sapiens, read-out: Dm. The protocol: as §1, §2, §3, §5, §6
A further experiment deals with HEC-1A cells. Conditions: Homo sapiens, Table 6, single drug, median effect, read-out: Dm. The method, then: as §2, §3
The drug concentrations corresponding to a median effect (Dm) are shown for each treatment; teriflunomide concentration is shown for combination (Combo) treatment at a 10:1 fixed molar ratio of two drugs, teriflunomide and AZD6738. […] CIwt<0.8, =0.8 to 1.2, and >1.2 indicates synergism, an additive effect, and antagonism, respectively. A CIwt value was calculated using the formula: CIwt=(ED50+2ED75+3ED90)/6. Datasets from at least three independent experiments were combined, and each table cell contains the mean value±SD.

The test system of a further experiment is ES2 cells. Conditions: Homo sapiens, ES2 parental, read-out: Dm. The method, then:
as §2, with “untreated)]×100 […] Datasets from at least three independent experiments were combined, and each table cell contains the mean value±SD. SCR, ES2-shScrambled. N/A, not applicable. Statistical analysis was carried out by one-way ANOVA with Bonferroni's post-hoc test, and differences were considered significant at **P<0.01 and ***P<0.001 as compared to the ES2 parental group with the same drug treatment. […] CIwt value was calculated using the formula: […] Datasets from at least three independent experiments were combined, and each table cell contains the mean value±SD. Teri, teriflunomide. SCR, ES2-shScrambled. N/A, not applicable. Statistical analysis was carried out by one-way ANOVA with Bonferroni's post-hoc test, and differences were considered significant at ***P<0.001 as compared to the ES2 parental group with the same drug treatment.” for “untreated)]×100”

The mark [4] stands for this setting: Table 1, single drug, median effect.
Where [5] appears, read: ES-2, Table 1, single drug, median effect.

Like-named read-outs stand apart in the source and are kept apart here.

As to `C/C(O)=C(\C#N)C(=O)Nc1ccc(C(F)(F)F)cc1` [Teriflunomide, teriflunomide], the IC50 in the experiment on OVISE cells, LacZ Dox is 19.3 ± 1.24 µM; with OVISE cells, LacZ, 18.2 ± 1.19 µM; in [1], 19.1 ± 1.07 µM; in experiment [2], 109 ± 3.18 µM; in the experiment with ES2 shARID1A (a) cells (setting [4]), 17.9 ± 1.32 µM; with ES2 shARID1A (a) cells (Table 2, teriflunomide alone) it was 15.6 ± 1.79 µM. Further, the IC50 in experiment [3] (setting [4]) was 28.2 ± 1.59 µM; in experiment [3] (Table 2, teriflunomide alone), 26.7 ± 1.26 µM; in the experiment on ES2 shARID1A (b) cells (setting [4]), 16.8 ± 0.92 µM; with ES2 shARID1A (b) cells (Table 2, teriflunomide alone) it was 15.5 ± 3.11 µM; in the experiment with HEC-1A cells it was 50.5 ± 4.99 µM; in the experiment with ES2 cells (setting [5]), 26.4 ± 2.18 µM. Further, in the experiment on ES2 cells (ES-2, Table 2, teriflunomide alone), the IC50 is 29.1 ± 0.54 µM.
`C[C@@H]1COCCN1c1cc(C2([S@](C)(=N)=O)CC2)nc(-c2cc[nH]c3nccc2-3)n1` [AZD6738]: the IC50 was 0.67 ± 0.11 µM in the experiment with OVISE cells, LacZ Dox; 0.7 ± 0.03 µM in the experiment with OVISE cells, LacZ; 0.77 ± 0.16 µM in experiment [1]; 6.99 ± 0.34 µM in experiment [2]; 0.2 ± 0.01 µM in the experiment with ES2 shARID1A (a) cells (setting [4]); 1.18 ± 0.17 µM in [3] (setting [4]). The values for the IC50 in the experiment on ES2 shARID1A (b) cells (setting [4]), with HEC-1A cells and with ES2 cells (setting [5]) were 0.24 ± 0.03 µM, 4.47 ± 0.45 µM and 1.23 ± 0.16 µM, respectively.
